# Values of other authors in US20250041461A1, “[177LU] LUTETIUM-PSMA I&T COMPOSITION AND DOSIMETRY, KIT, METHOD OF MAKING, AND METHOD OF USING THEREOF” (Curium US LLC, priority 2023, published 2025).
# Like-named read-outs stand apart in the source and are kept apart here.
# Experiments:
# [1] = tested on: prostate cancer; conditions: in vivo; cited from earlier work
# [2] = cited from earlier work
# [3] = cited from earlier work; for Absorbed Dose, Mean: Pluvicto; for dose estimate, Mean: Pluvicto Spc
compound,measurement,setting,value
O=C([O-])CN1CCN(CC(=O)[O-])CCN(CC(=O)NCC2CCC(C(=O)N[C@@H](Cc3ccc4ccccc4c3)C(=O)NCCCC[C@H](NC(=O)N[C@@H](CCC(=O)O)C(=O)O)C(=O)O)CC2)CCN(CC(=O)[O-])CC1.[177Lu+3] (some centres unmarked) [^177Lu-PSMA-617],adverse effects,[1],mainly transient adverse effects
same,mean renal absorbed dose,"[2]; VISION trial, 29 patients",0.43±0.16 Gy/GBq
same,mean renal absorbed dose,[2]; Violet et al.,0.39±0.16 Gy/GBq
same,projected cumulative absorbed dose to the kidneys at 6 cycles,[2]; Vision trial,19±7.3 Gy
same,renal toxicities,[2]; Vision trial,no renal toxicities were observed
same,"Absorbed Dose, Mean",[3]; Bladder,0.32 Gy/GBq
same,"dose estimate, Mean",[3]; Heart Wall,0.17 Gy/GBq
same,"Absorbed Dose, Mean",[3]; Heart,0.17 Gy/GBq
same,"dose estimate, Mean",[3]; Kidneys,0.43 Gy/GBq
same,"Absorbed Dose, Mean",[3]; Kidneys,0.43 Gy/GBq
same,"Absorbed Dose, Mean",[3]; Lacrimal Glands,2.1 Gy/GBq
same,"dose estimate, Mean",[3]; Lacrimal gland,2.1 Gy/GBq
same,"Absorbed Dose, Mean",[3]; Left Colon,0.58 Gy/GBq
same,"dose estimate, Mean",[3]; Left colon,0.58 Gy/GBq
same,"dose estimate, Mean",[3]; Liver,0.09 Gy/GBq
same,"Absorbed Dose, Mean",[3]; Liver,0.090 Gy/GBq
same,"dose estimate, Mean",[3]; Rectum,0.56 Gy/GBq
same,"Absorbed Dose, Mean",[3]; Right Colon,0.32 Gy/GBq
same,"dose estimate, Mean",[3]; Right colon,0.32 Gy/GBq
same,"Absorbed Dose, Mean",[3]; Salivary Glands,0.63 Gy/GBq
same,"dose estimate, Mean",[3]; Salivary glands,0.63 Gy/GBq
same,"dose estimate, Mean",[3]; Spleen,0.07 Gy/GBq
same,"Absorbed Dose, Mean",[3]; Spleen,0.067 Gy/GBq
same,"dose estimate, Mean",[3]; Thyroid,0.26 Gy/GBq
same,"Absorbed Dose, Mean",[3]; Thyroid,0.26 Gy/GBq
same,"dose estimate, Mean",[3]; Urinary bladder wall,0.32 Gy/GBq
